According to patent US12304909B2, “Compounds and their use in therapy” (IMPERIAL COLLEGE INNOVATIONS LIMITED, priority 2018, dated 2025):

How the values were obtained:
MRC5 cells = assay: Metabolic activity assay (MTS assay), MRC5; format: cell-based, human
Protocol: Example NMT inhibitors of the present invention were tested for activity in an in vitro metabolic activity assay using the human cell line MRC5. Comparative Examples 1, 2, 3, 4, 5 and 6 were also tested in the same metabolic activity assay. Compounds having activity in inhibiting metabolic activity in the assay are expected to be useful as agents for preventing and/or treating cancer, by virtue of being inhibitors of human NMT1 and/or NMT2.
MRC5 cells (obtained from Dr David Mann's group, Imperial College; cell type: fibroblasts cells which derive from normal lung tissue) were grown in DMEM media (supplemented with 10% FBS) and were seeded in a 96-well plate, 24 h prior to treatment. Cell suspensions were prepared by adjusting the cell density to the appropriate concentration (as stated in the Table 1 below) and 50 μL of the cell suspension was transferred to wells B-G in columns 2-11 of a 96-well plate.
100 μL of growth media (DMEM media) containing 0.2% DMSO was added to wells B-G in columns 2 and 11 as positive controls, and 100 μl of growth media containing Puromycin (3 μg/mL; final concentration in the plate 2 μg/mL) was added to wells B-G in column 3 as a negative control. Seven concentrations of NMT inhibitor stock solution were prepared for each Example (Example 1 and 2) and each Comparative Example (Comparative Examples 1, 2, 3, 4, 5 and 6) tested (same final percentage of DMSO, dilution factor=3 starting from 15 μM or 150 μM). 100 μL of inhibitor stock solution was added to wells B-G in columns 4-10 of a 96-well plate (final concentration of Example compound or Comparative Example compound in the plate starting from 10 μM or 100 μM; total volume in each well was 150 μL). The plate was incubated at 37° C. with 5% CO2 level.
After 72 h, 20 μL MTS reagent (Promega, prepared according to the supplier protocol) was added to each well of the 96-well plate. The plate was incubated at 37° C. for 2 h and the absorbance per well was measured at 490 nm with an EnVision plate reader. The average absorbance value of the negative control (Puromycin-treated cells) was subtracted from each value and the metabolic activity was calculated as a percentage relative to the positive control (DMSO-treated cells). EC50 values were calculated using GraphPad.

Rat hepatocyte half life = format: in vitro ADME, Sprague-Dawley rats; details: pooled cryopreserved rat hepatocytes, pH 7.4; pooled male Sprague-Dawley rat hepatocytes; read-out: Rat Hepatocyte t ½
Protocol: Example Compound 1 was tested for metabolic stability in rat metabolic assays using hepatocytes derived from pooled male Sprague-Dawley rats. Comparative Examples 2, 3 and 4 were also tested in the same assay. Compounds having good metabolic stability in the assay are expected to be especially useful as agents for preventing and/or treating cancer, by having a long half-life in human patients.
Frozen pooled rat hepatocytes obtained from LifeTechnologies were thawed and purified according to the manufacturer's instructions. The test compound (4 mM) in DMSO was diluted with acetonitrile to provide a 100 μM sub-stock then further diluted with pH7.4 Krebs-Henseleit buffer supplemented with CaCl2), NaHCO3, HEPES, fructose and glycine) to provide a 2 μM working solution. 25 μL of working solution was incubated at 37° C., treated with 25 μL of rat hepatocyte suspension (containing 1×10^6 cells/mL) and incubated at 37° C. with 5% CO2 level at 95% relative humidity. Wells were incubated for an appropriate time (0, 15, 30, 45, 60 and 75 min) then quenched with 250 μL of acetonitrile containing reference standards diltiazem, 7-ethoxycoumarin and propranolol). The plates were shaken, sonicated for 5 min then cooled to 4° C. until all sampling was complete. All plates were centrifuged at 4000 rpm for 20 min to pellet the debris. 110 μl supernatant was diluted 110 μL water and quantitated using LC-MS/MS.
The results were used to calculate the % Remaining of the test compound at time point t=100×˜[(AUC at time point t)/(AUC at T=0)]. A linear regression curve was fitted to a plot of natural logarithm (In) of AUC against time. The T-half (min)=0.693/slope

Rat half life in vivo = details: plasma; rat oral half-life; male Sprague-Dawley rats, 3 mg/kg oral gavage; read-out: Rat or mouse t ½ (rat) (converted)
Protocol: Example Compound 1, and Comparative Examples 2 and 3 were tested for metabolic stability in male Sprague-Dawley rats. Comparative Example 5 was tested for metabolic stability in male CD-1 mice. Compounds having good metabolic stability in rats or mice are expected to be especially useful as agents for preventing and/or treating cancer, by having a long half-life in human patients.
Male Sprague-Dawley rats were fasted for 4 h before dosing. Groups of 3 rats were dosed with Example Compound 1, Comparative Example 2, or Comparative Example 3 • (i) intravenously at a dose of 1 mg/kg using a dose volume 2 mL/kg where the animals are anaesthetized using 3% v/v isoflurane:oxygen mixture and dose administered through lateral tail vein; or • (ii) orally by gavage (OG) at a dose of 3 mg/kg using a dose volume 5 ml/kg to conscious animals.
˜100 μL blood sample were collected after 5 min, 15 min, 30 min, 1 h, 2 h, 4 h, 8 h and 24 h (intravenous) and 15 min, 30 min, 1 h, 2 h, 4 h, 8 h and 24 h (oral) and transferred to heparinized capillary tubes, and subsequently into 0.5 mL microcentrifuge tubes. All blood samples are processed for plasma by centrifugation at 1640×g for 5 min at 4° C. within half an hour of collection. Plasma samples were stored at −20° C. until all samples were collected. All samples were mixed with ice-cold acetonitrile containing an internal standard (IS) in 1:4 v/v and centrifuged at 4000 rpm for 15 min at 15° C. Supernatant was then half diluted in water and loaded for LCMS/MS analysis. Analyte peak area/IS peak area (the ratio) was considered for further data analysis as described below.
Calibration curve and QC samples: Compound stock was prepared and further serial dilutions were carried out. The samples were spiked in blank plasma (1:50). Calibration curve ranged from 1 to 1250 ppb. Three quality control samples were also prepared-high QC (HQC), Mid QC (MQC and Low QC (LQC).

Row | half-life at 1 µM (Rat hepatocyte half life) | half-life (Rat half life in vivo) | EC50 (MRC5 cells; 72 h) | Structure (SMILES) | EC50 (MRC5 cells; Homo sapiens, MRC5, 72 h)
1 | 0.767 h | 4.5 h | – | CNCCc1cnc2ccc(-c3ccc(F)cc3OCCc3c(C)nn(C)c3C)cn12 [Comparative Example 3, [2-(6-{4-fluoro-2-[2-(1,3,5-trimethyl-1H-pyrazol-4-yl)ethoxy]phenyl}imidazo[1,2-a]pyridin-3-yl)ethyl](methyl)amine] | 5.4 µM
2 | 1.33 h | 7.1 h | 0.013 µM | Cc1c(CCOc2cc(Cl)ccc2-c2ccc3ncc(CCN)n3c2)c(C(=O)N(C)C)nn1C [Example Compound 1, 4-(2-{2-[3-(2-aminoethyl)imidazo[1,2-a]pyridin-6-yl]-5-chlorophenoxy}ethyl)-N,N,1,5-tetramethyl-1H-pyrazole-3-carboxamide] | –
3 | 1.35 h | 8.3 h | – | CNC(=O)c1nn(C)c(C)c1CCOc1cc(F)ccc1-c1ccc2ncc(CCN)n2c1 [Comparative Example 2, 4-(2-{2-[3-(2-aminoethyl)imidazo[1,2-a]pyridin-6-yl]-5-fluorophenoxy}ethyl)-N,1,5-trimethyl-1H-pyrazole-3-carboxamide] | > 6.8 µM
